# Values joined by “and” are separate entries in the source; they are usually repeats but may differ in a detail not shown here. Equal values may be shown once.
# Legend:
# Assay type in all cases: biochemical
# wild type HIV-1 protease = target: T1, wild type HIV-1 protease (Human immunodeficiency virus type 1 group M subtype B, UniProt P04585); test: Ki determination, wild-type HIV-1 protease; details: W.T. HIV-1 protease; with standard error
# T1 construct: The active HIVPr is a homodimer of 99-residue monomers; made in house; host or cells: E. coli
# Excerpt: (§1) The wild-type HIV-1 Pr was produced as recombinant enzyme in E. coli as described by Ido et al. ( 1991) J. Biol. Chem. 266:24359-24366.
# [1] = target: T2, HIV-1 protease resistant mutant V82A (Human immunodeficiency virus type 1 group M subtype B, UniProt P04585, V570A); details: V82A mutant; with standard error
# T2 construct: The active HIVPr is a homodimer of 99-residue monomers; made in house
# [2] = tested on: HIV-1 protease resistant mutant V82A; details: Ki,mut V82A / Ki wild-type
# [3] = target: T3, HIV-1 protease resistant mutant I84V (Human immunodeficiency virus type 1 group M subtype B, UniProt P04585, I572V); details: I84V mutant; with standard error
# T3 construct: The active HIVPr is a homodimer of 99-residue monomers; made in house
# [4] = tested on: HIV-1 protease resistant mutant I84V; details: Ki,mut I84V / Ki wild-type
# [5] = target: T4, HIV-1 protease resistant mutant I15V (Human immunodeficiency virus type 1 group M subtype B, UniProt P04585, I503V); details: I15V mutant; with standard error
# T4 construct: The active HIVPr is a homodimer of 99-residue monomers; made in house
# [6] = tested on: HIV-1 protease resistant mutant I15V; details: Ki,mut I15V / Ki wild-type
# [7] = target: T5, HIV-1 protease resistant mutant K20R (Human immunodeficiency virus type 1 group M subtype B, UniProt P04585, K508R); details: K20R mutant; with standard error
# T5 construct: The active HIVPr is a homodimer of 99-residue monomers; made in house
# [8] = tested on: HIV-1 protease resistant mutant K20R; details: Ki,mut K20R / Ki wild-type
# [9] = target: T6, HIV-1 protease resistant mutant M46I (Human immunodeficiency virus type 1 group M subtype B, UniProt P04585, M534I); details: M46I mutant; with standard error
# T6 construct: The active HIVPr is a homodimer of 99-residue monomers; made in house
# [10] = tested on: HIV-1 protease resistant mutant M46I; details: Ki,mut M46I / Ki wild-type
# [11] = target: T7, HIV-1 protease resistant mutant L10I (Human immunodeficiency virus type 1 group M subtype B, UniProt P04585, L498I); details: L10I mutant; with standard error
# T7 construct: The active HIVPr is a homodimer of 99-residue monomers; made in house
# [12] = tested on: HIV-1 protease resistant mutant L10I; details: Ki,mut L10I / Ki wild-type
# [13] = target: T8, HIV-1 protease resistant mutant G48V (Human immunodeficiency virus type 1 group M subtype B, UniProt P04585, G536V); details: G48V mutant; with standard error
# T8 construct: The active HIVPr is a homodimer of 99-residue monomers; made in house
# [14] = tested on: HIV-1 protease resistant mutant G48V; details: Ki,mut G48V / Ki wild-type
# [15] = target: T9, HIV-1 protease resistant mutant L90M (Human immunodeficiency virus type 1 group M subtype B, UniProt P04585, L578M); details: L90M mutant; with standard error
# T9 construct: The active HIVPr is a homodimer of 99-residue monomers; made in house
# [16] = tested on: HIV-1 protease resistant mutant L90M; details: Ki,mut L90M / Ki wild-type
# [17] = target: T10, HIV-1 protease resistant mutant I64V (Human immunodeficiency virus type 1 group M subtype B, UniProt P04585, I552V); details: I64V mutant; with standard error
# T10 construct: The active HIVPr is a homodimer of 99-residue monomers; made in house
# [18] = tested on: HIV-1 protease resistant mutant I64V; details: Ki,mut I64V / Ki wild-type
# [19] = target: T11, HIV-1 protease resistant mutant I93L (Human immunodeficiency virus type 1 group M subtype B, UniProt P04585, I581L); test: Ki determination, HIV-1 protease mutant I93L
# T11 construct: The active HIVPr is a homodimer of 99-residue monomers; made in house
# Excerpt: as §1
structure (smiles),measurement,setting,value
"CC(C)CN(CC(O)C(Cc1ccccc1)NC(=O)C(Cc1ccccc1)CC(O)C(Cc1ccccc1)NC(=O)OC1CCCO1)S(=O)(=O)c1cccc(O)c1 [UIC-98-056, (1′S,2R,2′R,3S,5′S)-3-[N-[2′-Benzyl-5′-[N-(2-tetrahydrofuranyloxycarbonyl]amino-4′-hydroxy-6′-phenyl-1′-oxo]hexyl]amino-2-hydroxy-1-[N-isobutylamino-N′[3-hydroxybenzene)sulfonamido]]-4-[phenylbutane]",Ki,wild type HIV-1 protease,6.2 ± 0.8 nM
same,Ki,[1],6.23 ± 1.2 nM
same,fold of Ki increase from that of the wild-type,[2],1.0 fold
same,Ki,[3],55.3 ± 0.46 nM
same,fold of Ki increase from that of the wild-type,[4],9 fold and 8.9 fold
same,Ki,[5],1.22 ± 0.14 nM
same,fold of Ki increase from that of the wild-type,[6],0.2 fold
same,Ki,[7],2.9 ± 0.74 nM
same,fold of Ki increase from that of the wild-type,[8],0.5 fold
same,Ki,[9],3.16 ± 0.81 nM
same,fold of Ki increase from that of the wild-type,[10],0.5 fold
same,Ki,[11],1.03 ± 0.25 nM
same,fold of Ki increase from that of the wild-type,[12],0.2 fold
same,Ki,[13],8.7 ± 1.4 nM
same,fold of Ki increase from that of the wild-type,[14],1.4 fold
same,Ki,[15],2.1 ± 0.5 nM
same,fold of Ki increase from that of the wild-type,[16],0.3 fold
same,Ki,[17],6.24 ± 1.52 nM
same,fold of Ki increase from that of the wild-type,[18],1.0 fold
same,Ki,"[19]; I93L mutant, with standard error",3.05 ± 0.64 nM
same,fold of Ki increase from that of the wild-type,"[19]; Ki,mut I93L / Ki wild-type",0.5 fold

# Source: US6969731B1, “Protease inhibitors that overcome drug resistance” (The University of Illinois, Board of Trustees, priority 1999, dated 2005)
